Series [1] has as its system Rattus norvegicus. The conditions noted are these: oral.
Series [2] deals with Rattus norvegicus.
Series [3] deals with Rattus norvegicus. To be noted: M/F.
Setting [4] is: subchronic, gavage, M, Sprague-Dawley, Clinical Observation: Salivation + Hematology: NEUT increase + Histopathology: Forestomach-Erosion Forestomach-Cellular infiltration, ….
Setting [5] is: short-term, duration: 28 days, gavage, M, Sprague-Dawley, Clinical Observation: Reddish urine Soft stool DiarrheaSpontaneous locomotion decrease, Incomplete eyelid opening + Functional Observational….
[6] abbreviates: short-term, duration: 28 days, gavage, F, Wistar, Deaths + Clinical Observation: Thinly haired areas of skin Weakness Thin appearance Respiratory disorders Some resistance to dosing + Body ….
Where [7] appears, read: short-term, duration: 28 days, gavage, M, Wistar, Deaths + Clinical Observation: Thinly haired areas of skin Weakness Thin appearance Respiratory disorders Some resistance to dosing + Body ….
[8] abbreviates: subchronic, gavage, M, Sprague-Dawley, Urinalysis: Round epithelial cell increase + Hematology: RBC decrease, HGB decrease, HCT decrease, RET increase, R + Blood Chemistry: a2-….
[9] abbreviates: short-term, duration: 28 days, gavage, M, Sprague-Dawley, Clinical Observation: Salivation Dark green urinelocomotor activity decrease, Staining around nose and mouth + Functional Observational ….
Where [10] appears, read: subchronic, gavage, M, Sprague-Dawley, Clinical Observation: Respiratory noise Irregular respiration Deep respiration R Soiled perigenital region R Oligo-stool R Hypothermia R + ….

For orientation: NOAEL means the highest dose or exposure tested at which no adverse effect was seen. As usually defined, the LOAEL is the lowest tested level that showed an adverse finding.

Take `O=P([O-])(O)CN(CCN(CCN(CP(=O)(O)O)CP(=O)(O)O)CP(=O)(O)O)CP(=O)(O)O.[Na+]`: the NOAEL in the series on Rattus norvegicus [1] (subchronic, duration: 90 days, diet, M/F, Wistar, Hematology: RBC increase, MCV decrease, MCH decrease, HGB decrease, MCHC decrease + Absolute Organ Weight: Liver decrease) turned out to be 96 mg/kg-day.

On to `Clc1ccc(OCCOCc2ccc(COCCOc3ccc(Cl)cc3)cc2)cc1`, for which, in the series on Rattus norvegicus [1] (short-term, duration: 28 days, gavage, M/F, Body Weight Changes: Body weight gain decrease + Food Consumption: decrease + Blood Chemistry: ALB increase, A/G increase + Organ Weight: …), the NOEL was 8 mg/kg-day. With `NC1=CC(=O)C(N=Nc2ccc(Nc3ccc(N=Nc4c(S(=O)(=O)[O-])cc5c(c4N)C(=O)C(N=Nc4ccccc4)C(S(=O)(=O)[O-])=C5)cc3S(=O)(=O)[O-])cc2)C=C1.[Na+].[Na+].[Na+]` (stereo not drawn), the NOEL with Rattus norvegicus [1] (short-term, duration: 28 days, gavage, M/F, Hematology: MET-HGB increase, RET increase, RBC decrease, HGB decrease, MCHC decrease, MCV increase, PCV decrease, MCH increase, HEINZ …) was under 50 mg/kg-day.

Take `CC(=O)Nc1cc(Nc2nc(Nc3ccc(N=Nc4cccc(S(=O)(=O)[O-])c4)c(NC(C)=O)c3)nc(N3CCOCC3)n2)ccc1N=Nc1cccc(S(=O)(=O)[O-])c1.[Na+].[Na+]`: the NOEL in the series with Rattus norvegicus [1] (short-term, duration: 28 days, gavage, M/F, Urinalysis: Bil increase + Blood Chemistry: T-Bil increase, UA increase) was determined as 200 mg/kg-day. Take `CC(C)(c1ccc(O)cc1)c1ccc(C(C)(c2ccc(O)cc2)c2ccc(O)cc2)cc1`: in the series on Rattus norvegicus [1] (short-term, duration: 28 days, gavage, M/F, Crj:CD, Hematology: Plt increase + Blood Chemistry: GPT increase, TG increase, Cho increase, TP decrease, LH decrease, , FSH decrease, Estradiol …), the NOEL was determined as 300 mg/kg-day. Regarding `CCCCCCCCOC(=O)CCc1cc(-n2nc3ccccc3n2)c(O)c(C(C)(C)C)c1`, in the series on Rattus norvegicus [1] (short-term, duration: 28 days, gavage, M/F, Body Weight Changes: Body weight gain decrease + Hematology: PT increase + Blood Chemistry: GOT increase, GPT increase, T-CHO increase, TG …), the NOEL came to 2 mg/kg-day.

Regarding `CCN1CCc2c3n(c4ccccc24)C(C(=O)OC)=CCC31.Cl` (stereo not drawn), the NOEL in the series with Rattus norvegicus [1] (chronic, duration: 91 days, gavage, M/F, CD, Clinical Observation: Salivation Greenish urine + Urinalysis: Greenish, or Dark green urine Quarry placoid crystal Urinary cast Volume …) stood at 50 mg/kg-day. In the case of `CC1=C(C)C(=O)C(C(CCCCCC(=O)O)c2ccccc2)=C(C)C1=O` (racemic), the NOAEL in the series with Rattus norvegicus [1] (subchronic, duration: 13 weeks, gavage, M/F, Fischer 344, Body Weight Changes: decrease + Food Consumption: decrease + Hematology: RBC decrease, HCT decrease, HGB decrease, MCV increase, MCH …) was determined as 20 mg/kg-day. As for `C[Si](O[Si](C)(C)C)O[Si](C)(C)C` [1,1,1,3,5,5,5-Heptamethyltrisiloxane], in the series on Rattus norvegicus [1] (subchronic, duration: 35 days, gavage, M, Wistar, Clinical Observation: Salivation / No description about sex and dosages Pushing the head through the bedding material / No description …), the NOAEL amounted to 50 mg/kg-day.

Regarding `CN1CCN(C)C1=O` [1,3-Dimethyl-2-imidazolidinone], the NOEL with Rattus norvegicus [1] (subchronic, gavage, M, Sprague-Dawley, Body Weight Changes: Gain decrease(trend) + Blood Chemistry: TG increase, T-Cho increase(trend)TP decrease, R a1-glb decrease, R beta-glb …) worked out at 20 mg/kg-day. Regarding `C1CCC2=NCCCN2CC1` [1,8-Diazabicyclo[5.4.0]undec-7-ene], in the series with Rattus norvegicus [1] (setting [4]), the NOAEL turned out to be 30 mg/kg-day and the NOEL was determined as 10 mg/kg-day. Turning to `Nc1c(Br)cc(Br)c2c1C(=O)c1ccccc1C2=O` [1-Amino-2,4-dibromoanthraquinone], the NOAEL in the series on Rattus norvegicus [1] (setting [5]) is under 200 mg/kg-day. The NOEL in the series with Rattus norvegicus [1] (setting [5]) was under 200 mg/kg-day; in the series on Rattus norvegicus [1] (subchronic, duration: 13 weeks, diet, F, Fischer 344, Deaths + Clinical Observation: Lethargy Emaciation StaggeredHunched posture + Body Weight Changes: decrease + Food Consumption: decrease + …), under 170 mg/kg-day; in the series with Rattus norvegicus [1] (subchronic, duration: 13 weeks, diet, M/F, Fischer 344, Deaths + Clinical Observation: Lethargy Emaciation StaggeredHunched posture + Body Weight Changes: decrease + Food Consumption: decrease + …), under 240 mg/kg-day. `CC(O)CCl` (stereo not drawn) [1-Chloro-2-propanol]: the NOEL in the series with Rattus norvegicus [1] (chronic, duration: 14 weeks, water, M/F, Fischer 344, Body Weight Changes: decrease + Water Consumption: decrease + Urinalysis: Urine volume decrease, Specific gravity increase, Total protein …) is under 7.36 mg/kg-day. Regarding `CCCCCCCCCCCCCCCCO` [1-Hexadecanol], the NOAEL was found to be 300 mg/kg-day with Rattus norvegicus [1] (setting [6]); 300 mg/kg-day in the series with Rattus norvegicus [1] (setting [7]); 1000 mg/kg-day with Rattus norvegicus [1] (short-term, duration: 28 days, gavage, Sprague-Dawley); 875 mg/kg-day in the series with Rattus norvegicus [1] (subchronic, duration: 13 weeks, diet, F, Crl, Body Weight Changes: decrease2064 + Food Consumption: decrease2064 + Absolute Organ Weight: Brain2064 Heart LiverSpleen Gonad + Relative …); 723 mg/kg-day with Rattus norvegicus [1] (subchronic, duration: 13 weeks, diet, M, Crl, Body Weight Changes: decrease2064 + Food Consumption: decrease2064 + Absolute Organ Weight: Brain2064 Heart LiverSpleen Gonad + Relative …). Moreover, the NOEL in the series with Rattus norvegicus [1] (setting [6]) was 300 mg/kg-day; in the series with Rattus norvegicus [1] (setting [7]), 100 mg/kg-day.

`C=CC/C=C/C/C=C/C/C=C/C` [1-Propene, tetramer]: in the series on Rattus norvegicus [1] (setting [8]), the NOAEL was found to be 40 mg/kg-day and the NOEL was under 40 mg/kg-day.

For `C=CCCCCCCCCCCCC` [1-Tetradecene], the NOAEL with Rattus norvegicus [1] (subchronic, gavage, M, Sprague-Dawley, Absolute Organ Weight: Liver increase + Relative Organ Weight: Liver increase + Histopathology: Liver-Hepatocyte cytoplasmic vacuolation) stood at 100 mg/kg-day. Compound `Brc1ccc(Oc2cc(Br)c(Br)cc2Br)c(Br)c1` [2,2',4,4',5-Pentabromodiphenyl ether] came in with an LOAEL in the series on Rattus norvegicus [2] (developmental, duration: 1 days, oral, gavage, M/F, Wistar, developmental) of 0.06 mg/kg-day. The LOEL in the series with Rattus norvegicus [3] (developmental, injection, intraperitoneal, Wistar, generation: F1, F1: Y maze) was 30 mg/kg-day; with Rattus norvegicus [3] (reproduction developmental, oral, gavage, Crl:CD(SD), generation: P0, P0: Morris water maze (latency, significant trial)) it was 2 mg/kg-day. As for `Cc1cc(C)c(C)c(O)c1` [2,3,5-Trimethylphenol], the NOEL with Rattus norvegicus [1] (subchronic, gavage, M, Sprague-Dawley, Clinical Observation: Soiled perigenitalia of urine LethargyAtaxia gait(transient after administration) + Body Weight Changes: decrease(…) amounted to 100 mg/kg-day. `Cl.Cl.Nc1ccc(O)c(N)c1` [2,4-Diaminophenol dihydrochloride]: in the series on Rattus norvegicus [1] (setting [9]), the NOAEL is 50 mg/kg-day and the NOEL is under 50 mg/kg-day. Also, in the series on Rattus norvegicus [1] (subchronic, duration: 13 weeks, gavage, M/F, Fischer 344, Deaths + Body Weight Changes: decrease>50 + Absolute Organ Weight: Liver increase, Thymus decrease + Relative Organ Weight: Right kidney …), the NOEL is under 12 mg/kg-day. For the compound `Cc1ccc(S(=O)(=O)O)c(C)c1` [2,4-Dimethylbenzenesulfonic acid], in the series on Rattus norvegicus [1] (setting [10]), the LOEL stood at 500 mg/kg-day and the NOEL came out at 100 mg/kg-day. In the case of `CC(C)=CC=C(C)C` [2,5-Dimethyl-2,4-hexadiene], in the series with Rattus norvegicus [1] (subchronic, gavage, M, Sprague-Dawley, Clinical Observation: Soiled peri-genital + Body Weight Changes: decrease + Food Consumption: decrease(day1-8) + Hematology: WBC increase, …), the NOEL is under 100 mg/kg-day.

`C#CC(C)(C)O` [2-Methyl-3-butyn-2-ol]: the NOAEL in the series on Rattus norvegicus [1] (short-term, duration: 28 days, gavage, M/F, BOB:WISW, Deaths + Clinical Observation: Sedation Narcosis Hypothermia + Body Weight Changes: decrease + Food Consumption: decrease + Hematology: WBC …) amounted to 50 mg/kg-day. For `Sc1ccc2ccccc2c1` [2-Naphthalenethiol], the NOEL in the series with Rattus norvegicus [1] (short-term, duration: 28 days, gavage, M/F, Sprague-Dawley, Functional Observational Battery: Landing foot splay decrease + Food Consumption: decrease + Water Consumption: increase + Urinalysis: …) was found to be 8 mg/kg-day. In the case of `Cc1cccc(C(C)(C)C)c1O` [2-tert-Butyl-6-methylphenol], in the series with Rattus norvegicus [1] (subchronic, gavage, M, Sprague-Dawley, Hematology: Ret increase, PT increase, APTT increase + Blood Chemistry: GOT increase, GPT increasegamma-GTP increase, Cho increase + …), the NOEL came to 8 mg/kg-day. Consider `BrC(Br)c1ccccc1OCC1CO1` (stereo not drawn) [2-{[2-(Dibromomethyl)phenoxy]methyl}oxirane], for which the NOEL in the series on Rattus norvegicus [1] (subchronic, gavage, M, Sprague-Dawley, Clinical Observation: Salivation (transient) + Absolute Organ Weight: Kidney increase + Relative Organ Weight: Kidney increase + …) came out at 8 mg/kg-day. Turning to `Clc1ccc(N=Nc2ccc(Cl)c(Cl)c2)cc1Cl` [3,3',4,4'-Tetrachloroazobenzene], in the series on Rattus norvegicus [1] (subchronic, gavage, M/F, Fischer 344, Body Weight Changes: decrease + Hematology: Ret increase Hct decrease, Hgb decrease, RBC decrease, Plt decrease, WBC decrease, Seg decrease…), the NOEL is under 0.1 mg/kg-day.

As for `[O-][N+](=Nc1ccc(Cl)c(Cl)c1)c1ccc(Cl)c(Cl)c1` [3,3',4,4'-Tetrachloroazoxybenzene], the NOEL in the series with Rattus norvegicus [1] (subchronic, gavage, M/F, Fischer 344, Deaths + Body Weight Changes: decrease af>>>10 + Hematology: Plt decrease Hct decrease, Hgb decrease, RBC decrease Ret increase, WBC …) was under 0.1 mg/kg-day. `COCC(CCC(C)C)(COC)C(C)C` [3,3-Bis(methoxymethyl)-2,6-dimethylheptane]: the NOEL in the series with Rattus norvegicus [1] (short-term, duration: 28 days, gavage, M/F, Clinical Observation: Salivation + Blood Chemistry: BIL increase, CL decrease + Absolute Organ Weight: Liver increase + Relative Organ …) came out at 8 mg/kg-day.

As for `CC(O[Si](C)(C)C(C)(C)C)C1CNC1=O` (stereo not drawn) [3-(1-{[tert-Butyl(dimethyl)silyl]oxy}ethyl)azetidin-2-one], in the series on Rattus norvegicus [1] (short-term, duration: 28 days, gavage, M/F, Clinical Observation: Salivation + Blood Chemistry: TP increase, T-CHO increase, TG increase, Glu decrease, Ca increase + Organ Weight: …), the NOEL was 8 mg/kg-day. With `Nc1cc(OCCOc2ccccc2)n[nH]1` [3-(2-Phenoxyethoxy)-1H-pyrazol-5-amine], the NOEL in the series on Rattus norvegicus [1] (short-term, duration: 28 days, gavage, M/F, Deaths + Clinical Observation: Salivation Locomotor activity decrease, Sedation Urinary incontinence + Body Weight Changes: Body weight …) was 40 mg/kg-day. Compound `[Cd]` [Cadmium] came in with an LOAEL in the series with Rattus norvegicus [2] (short-term, duration: 2 weeks, inhalation, M/F, Fischer 344, respiratory) of 0.088 mg/m3.

In turn, `CCN(CC)C(=O)c1cccc(C)c1` [DEET] returned an NOAEL in the series with Rattus norvegicus [2] (developmental, duration: 364 days, oral, diet, M/F, Sprague-Dawley, developmental) of 100 mg/kg-day. Consider `O=CCCCC=O` [Glutaraldehyde], for which the NOAEL stood at 0.512 mg/m3 with Rattus norvegicus [2] (acute, duration: 1 days, inhalation, M/F, Fischer 344, respiratory) and 4 mg/kg-day with Rattus norvegicus [2] (chronic, duration: 2 years, oral, drinking water, M/F, Fischer 344, gastrointestinal). For the compound `[Cl][Ti]([Cl])([Cl])[Cl]` [Titanium tetrachloride], the LOAEL in the series with Rattus norvegicus [2] (chronic, duration: 104 weeks, inhalation, M/F, Crl:CD(SD), respiratory) stood at 0.1 mg/m3; with Rattus norvegicus [2] (short-term, duration: 4 weeks, inhalation, M, Crl:CD(SD), respiratory) it was 5 mg/m3. `ClCOCCl` [bis(Chloromethyl) ether] had an NOAEL in the series on Rattus norvegicus [2] (chronic, duration: 6 months, inhalation, M, Sprague-Dawley, respiratory) of 0.47 mg/m3.
